Data published in ChEMBL document CHEMBL1201862, “PubChem BioAssay data set” (2004).
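Protocol summary: plate cells (96-well), add compound at 5 concentrations, incubate 48 h, interpolate endpoints linearly. The concentration for 50% growth inhibition is given as GI50.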 Active and inactive are the calls of the source. Cut-off read from the data, not from the text of the source: active = GI50 up to about 1.1 µM and inactive = higher.

Columns and labels:
Assay in all cases: inhibition of tumour cell growth, NCI panel, 48 h
786-0 = tested on: 786-0
ACHN = tested on: ACHN
HCT-116 = tested on: HCT-116
HT-29 = tested on: HT-29
KM-20L2 = tested on: KM-20L2
M14 = tested on: M14
NCI-H226 = tested on: NCI-H226
RXF 393 = tested on: RXF 393
SF-295 = tested on: SF-295
SF-539 = tested on: SF-539
SK-MEL-28 = tested on: SK-MEL-28
SK-MEL-2 = tested on: SK-MEL-2
SR = tested on: SR
UACC-62 = tested on: UACC-62
A498 = tested on: A498
CAKI-1 = tested on: CAKI-1
Hs-578T = tested on: Hs-578T
PC-3 = tested on: PC-3
T47D = tested on: T47D

Measured: GI50

Nc1nc(O)c([N+](=O)[O-])c(NCCOCP(=O)(O)O)n1
inactive: 786-0 > 100 µM | ACHN > 100 µM | HCT-116 > 100 µM | HT-29 > 100 µM | KM-20L2 > 100 µM | M14 > 100 µM | NCI-H226 > 100 µM | RXF 393 > 100 µM | SF-295 > 100 µM | SF-539 > 100 µM | SK-MEL-28 > 100 µM | SK-MEL-2 > 100 µM | SR > 100 µM | UACC-62 > 100 µM

Cc1nc2ccccc2nc1NS(=O)(=O)c1ccc(N)cc1
inactive: 786-0 > 100 µM | A498 > 100 µM | ACHN > 100 µM | CAKI-1 > 100 µM | HT-29 > 100 µM | KM-20L2 > 100 µM | M14 > 100 µM | NCI-H226 > 100 µM | RXF 393 > 100 µM | SF-295 > 100 µM | SF-539 > 100 µM | SK-MEL-28 > 100 µM | SK-MEL-2 > 100 µM | SR > 100 µM | UACC-62 > 100 µM

CO/S(=N/S(=O)(=O)c1ccccc1)c1ccccc1[N+](=O)[O-] (stereo not drawn)
inactive: 786-0 > 100 µM | ACHN > 100 µM | CAKI-1 > 100 µM | HT-29 > 100 µM | KM-20L2 > 100 µM | M14 > 100 µM | NCI-H226 > 100 µM | SF-295 > 100 µM | SF-539 > 100 µM | SK-MEL-28 > 100 µM | SK-MEL-2 > 100 µM | SR > 100 µM | UACC-62 > 100 µM

S=P(N1CCCC1)(N1CC1)N1CC1
inactive: 786-0 > 100 µM | A498 > 100 µM | ACHN 71.6 µM | CAKI-1 49.4 µM | HCT-116 > 100 µM | HT-29 > 100 µM | KM-20L2 > 100 µM | M14 > 100 µM | NCI-H226 > 100 µM | RXF 393 > 100 µM | SF-295 > 100 µM | SF-539 > 100 µM | SK-MEL-28 > 100 µM | SK-MEL-2 > 100 µM | SR 83.8 µM | UACC-62 > 100 µM

NC1=NN(c2ccccc2)C(=O)C1C(=O)CCC(=O)Nc1cccc(C(F)(F)F)c1 (stereo not drawn)
inactive: 786-0 > 100 µM | ACHN 23.1 µM | CAKI-1 > 100 µM | HCT-116 > 100 µM | HT-29 > 100 µM | KM-20L2 72.6 µM | M14 41.2 µM | NCI-H226 > 100 µM | RXF 393 > 100 µM | SF-295 > 100 µM | SF-539 > 100 µM | SK-MEL-28 > 100 µM | SK-MEL-2 > 100 µM | SR > 100 µM | UACC-62 53 µM

O=C1C(=O)N(c2ccc(Cl)c(Cl)c2)C(=O)C(=O)C1c1nc2ccccc2o1
inactive: 786-0 > 100 µM | ACHN > 100 µM | CAKI-1 > 100 µM | HCT-116 34.1 µM | HT-29 41.6 µM | KM-20L2 > 100 µM | M14 80.4 µM | NCI-H226 > 100 µM | SF-295 > 100 µM | SF-539 > 100 µM | SK-MEL-28 > 100 µM | SK-MEL-2 > 100 µM | SR 30 µM | UACC-62 74.8 µM

C#CCOCn1cnc2c(N)ncnc21
inactive: 786-0 > 100 µM | A498 > 100 µM | ACHN > 100 µM | CAKI-1 > 100 µM | HCT-116 > 100 µM | HT-29 > 100 µM | KM-20L2 > 100 µM | M14 > 100 µM | NCI-H226 > 100 µM | SF-295 > 100 µM | SF-539 > 100 µM | SK-MEL-28 > 100 µM | SK-MEL-2 > 100 µM | SR > 100 µM | UACC-62 > 100 µM

N#CC(NNC(=O)c1ccccc1O)c1ccc(O)cc1 (stereo not drawn)
inactive: 786-0 8.02 µM | ACHN 2.33 µM | CAKI-1 6 µM | HCT-116 3.33 µM | HT-29 28.1 µM | KM-20L2 23.4 µM | M14 6.93 µM | NCI-H226 3.21 µM | RXF 393 1.48 µM | SF-295 4.38 µM | SF-539 3.78 µM | SK-MEL-28 > 100 µM | SK-MEL-2 2.67 µM | SR 2.8 µM | UACC-62 1.95 µM

COC(=O)C1=CC(=O)[C@@H]2CCCC[C@H]12
inactive: 786-0 > 100 µM | ACHN > 100 µM | CAKI-1 > 100 µM | HCT-116 > 100 µM | KM-20L2 > 100 µM | M14 > 100 µM | NCI-H226 > 100 µM | RXF 393 > 100 µM | SF-539 > 100 µM | SK-MEL-28 > 100 µM | SK-MEL-2 > 100 µM | SR > 100 µM | UACC-62 > 100 µM

O=C(CC(=O)n1nc(-c2ccccc2)c(/N=N/c2ccccc2Cl)c1-c1ccccc1)Nc1ccc(Cl)cc1
inactive: 786-0 > 52.7 µM | A498 > 100 µM | ACHN > 100 µM | CAKI-1 > 100 µM | HCT-116 > 41.3 µM | HT-29 > 54.6 µM | KM-20L2 > 57.3 µM | M14 > 100 µM | NCI-H226 > 100 µM | RXF 393 > 100 µM | SF-295 > 100 µM | SF-539 > 100 µM | SK-MEL-28 > 100 µM | SK-MEL-2 > 100 µM | SR > 100 µM | UACC-62 > 100 µM

Cc1ccc(C2=C(c3ccccc3)C(Br)(c3ccccc3)C(c3ccccc3)=C2c2ccc(C)cc2)cc1
inactive: 786-0 > 100 µM | A498 > 100 µM | ACHN > 100 µM | CAKI-1 > 100 µM | HCT-116 > 100 µM | HT-29 > 100 µM | KM-20L2 > 100 µM | M14 > 100 µM | NCI-H226 > 100 µM | RXF 393 > 100 µM | SF-295 > 100 µM | SF-539 > 100 µM | SK-MEL-28 > 100 µM | SK-MEL-2 > 100 µM | UACC-62 > 100 µM

Cc1ccccc1C(=O)c1ccccc1O
inactive: 786-0 > 100 µM | A498 > 100 µM | ACHN > 100 µM | CAKI-1 > 84.3 µM | HCT-116 > 100 µM | HT-29 > 100 µM | KM-20L2 > 100 µM | M14 > 100 µM | NCI-H226 > 100 µM | RXF 393 > 100 µM | SF-295 > 100 µM | SF-539 > 100 µM | SK-MEL-28 > 100 µM | SK-MEL-2 > 100 µM | UACC-62 > 100 µM

N#CCCC(C#N)(C#N)CCC#N
inactive: 786-0 > 100 µM | ACHN > 100 µM | HCT-116 > 100 µM | HT-29 > 100 µM | KM-20L2 > 100 µM | M14 > 100 µM | NCI-H226 > 100 µM | SF-295 > 100 µM | SF-539 > 100 µM | SK-MEL-28 > 100 µM | SR > 100 µM | UACC-62 > 100 µM

CN(CO)c1nc(N(C)CO)nc(N(C)CO)n1 [TRIMELAMOL]
inactive: 786-0 24.2 µM | A498 23.7 µM | ACHN 27.5 µM | CAKI-1 23.8 µM | HT-29 23 µM | Hs-578T 27.8 µM | KM-20L2 8.85 µM | M14 21.8 µM | PC-3 21.8 µM | RXF 393 11.6 µM | SF-295 26.8 µM | SK-MEL-28 13.6 µM | SR 39.6 µM | T47D 32.1 µM | UACC-62 13.3 µM
